# US8853264B2, “Use of lignan compounds for treating or preventing inflammatory disease” (Newtree Industry Co., Ltd., priority 2005, dated 2014)
# Tested on: edemas of the rat ears induced by TPA
# Assay: TPA-induced rat ear edema inhibition test
# Format: in vivo, Wistar rats
# Conditions: for Edema thickness: topical in acetone 30 min after TPA, measured after 8 hours
# Description: The anti-inflammatory activity of the lignan compound isolated and purified in <Example 1> was tested in animal models. The anti-inflammatory activity was measured by edema inhibition test on rats. As the test animals, 5-week-old Wistar rats (DaeHan Biolink Co., Ltd, Korea) were used. The animals were provided with standard pellet forming rat feed (Cheiljedang Corporation, Korea) and given freely to feed and water. Also, the animals were housed in conditions of 12-hr light/12-hr dark cycle, temperature of 25±2° C. and humidity of 60±10%. Inflammation inducing agent TPA (12-O-tetradecanoylphorbol-13-acetate; Sigma) was dissolved in acetone to a concentration of 200 μg/mL. The edemas of the rat ears were induced by applying the TPA solution locally to each of the outer and inner faces of the ear in an amount of 10 μl/ear (4 μg/ear). The macelignan purified in <Example 1> and non-steroidal anti-inflammatory drug indomethacin as a control substance were dissolved in acetone and used in amounts of 20, 200 and 2000 μg/ear. Each of the macelignan and the indomethacin was applied locally to the rat ears at 30 minutes after treatment with TPA. A control group was locally applied with acetone. The thickness of the rat ears was measured with a caliper 8 hours after treatment with each of the substances. An increase in the ear thickness in the group treated with the sample was compared to that of the group untreated with the sample, and inflammation inhibitory effect was measured by calculating percent edema inhibition.
smiles,measurement,setting,value
"COc1ccc2c(c1)c(CC(=O)O)c(C)n2C(=O)c1ccc(Cl)cc1 [indomethacin, reference compound]",Edema inhibition,dose 20 μg/ear,25.0%
same,Edema thickness,dose 20 μg/ear,185 ± 5 μm
same,Edema inhibition,dose 200 μg/ear,56.5%
same,Edema thickness,dose 200 μg/ear,108 ± 8 μm
same,Edema inhibition,dose 2000 μg/ear,74.2%
same,Edema thickness,dose 2000 μg/ear,64 ± 7 μm
